Measurements taken from US7098199B2 (Sterix Limited, priority 1991, dated 2006).
pIC50: −log10 of the molar value. Read-outs that look alike come from different tables or passages of the source. Each block holds one compound with its values, some of them ahead of it.

Columns and labels:
[1] = Chemical and thermal stability of compound 12; format: physicochemical; conditions: sodium hydroxide in methanol
Source text: Two equivalents of sodium hydroxide are required for consuming excess sulphur trioxide-pyridine complex to yield the neutral sodium sulphate. Insufficient amount of sodium hydroxide will therefore lead to the formation of sodium hydrogen sulphate which is acidic.

[2] = target: T1, E1-STS (Homo sapiens, UniProt P08842); assay: Hydrolysis of coumarin sulphate (12) by placental microsomes, TLC; format: biochemical
T1 construct: from tissue; host or cells: placental microsomes (100,000 g fraction)
T1 sequence (P08842 22-583): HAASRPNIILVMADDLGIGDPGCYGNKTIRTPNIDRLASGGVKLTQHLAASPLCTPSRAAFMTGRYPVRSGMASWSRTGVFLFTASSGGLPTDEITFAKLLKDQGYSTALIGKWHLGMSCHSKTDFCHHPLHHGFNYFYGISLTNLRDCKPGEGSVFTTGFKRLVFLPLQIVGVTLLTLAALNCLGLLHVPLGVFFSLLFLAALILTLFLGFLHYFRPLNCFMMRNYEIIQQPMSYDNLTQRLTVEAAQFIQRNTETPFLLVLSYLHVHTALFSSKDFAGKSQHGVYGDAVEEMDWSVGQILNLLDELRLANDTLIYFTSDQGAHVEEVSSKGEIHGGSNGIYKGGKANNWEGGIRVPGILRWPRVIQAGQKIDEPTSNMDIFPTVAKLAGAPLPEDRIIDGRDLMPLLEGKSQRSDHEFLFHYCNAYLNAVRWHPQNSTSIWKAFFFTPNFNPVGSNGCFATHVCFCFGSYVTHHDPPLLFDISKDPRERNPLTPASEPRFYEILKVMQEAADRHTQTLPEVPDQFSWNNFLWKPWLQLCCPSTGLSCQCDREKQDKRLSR

[3] = target: T2, oestrone sulphatase (Homo sapiens, UniProt P08842)
T2 sequence (P08842 22-583): T1 sequence (P08842 22-583)

[4] = tested on: uterine growth; assay: In vivo oestrogenicity: uterine weight in ovariectomised rats (NOMATE); design: species or system rat; conditions: 0.1 mg/Kg/day for five days orally
Method: (§1) Using 17-deoxy oestrone-3-O-sulphamate (NOMATE, FIG. 5 Formula IV where X=—OSO2NH2, Y=—CH2— and R1 and R2=H, and FIG. 13) as a representative example, the ability of this compound to inhibit oestrone sulphatase activity in vivo was examined in rats. The oestrogenicity of this compound was examined in ovariectomised rats. In this model compounds which are oestrogenic stimulate uterine growth.
NOMATE (0.1 mg/Kg/day for five days) was administered orally to rats with another group of animals receiving vehicle only (propylene glycol). At the end of the study uteri were obtained and weighed with the results being expressed as uterine weight/whole body weight×100.

[5] = target: T3, oestrone sulphatase (Rattus norvegicus, UniProt P15589); assay: Inhibition of oestrone sulphatase activity in vivo in rat liver (NOMATE); conditions: 0.1 mg/Kg/day for five days orally; rat liver tissue; compared with untreated controls
T3 construct: samples of liver tissue were obtained; from tissue; host or cells: rat liver
T3 sequence (P15589 20-577): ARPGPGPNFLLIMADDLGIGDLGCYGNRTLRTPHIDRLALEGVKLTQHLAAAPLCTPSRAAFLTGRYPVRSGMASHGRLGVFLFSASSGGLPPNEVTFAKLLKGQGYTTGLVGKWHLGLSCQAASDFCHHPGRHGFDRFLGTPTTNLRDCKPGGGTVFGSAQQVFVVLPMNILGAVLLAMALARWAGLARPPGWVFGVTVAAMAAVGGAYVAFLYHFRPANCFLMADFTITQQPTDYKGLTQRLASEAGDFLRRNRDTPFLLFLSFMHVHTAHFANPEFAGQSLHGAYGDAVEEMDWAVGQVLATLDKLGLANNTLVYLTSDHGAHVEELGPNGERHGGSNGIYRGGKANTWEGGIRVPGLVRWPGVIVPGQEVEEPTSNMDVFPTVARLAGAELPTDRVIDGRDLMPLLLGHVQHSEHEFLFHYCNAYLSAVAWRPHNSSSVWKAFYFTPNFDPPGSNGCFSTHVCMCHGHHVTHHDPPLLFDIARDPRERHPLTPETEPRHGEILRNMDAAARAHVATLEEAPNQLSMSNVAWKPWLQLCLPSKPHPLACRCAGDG
Method: as §1
NOMATE (0.1 mg/Kg/day for five days) was administered orally to rats with another group of animals receiving vehicle only (propylene glycol). At the end of the study samples of liver tissue were obtained and oestrone sulphatase activity assayed using ^3H oestrone sulphate as the substrate as previously described.

[6] = target: T4, Steroid sulphatase (Steryl Sulphatase EC3.1.6.2) (Homo sapiens, UniProt P08842); assay: Steroid sulphatase activity in MCF-7 cells pre-incubated with inhibitor and washed; format: cell-based; conditions: pre-treatment 2 hours with 0.1 μM, cells washed 3 times; mean ± 1 S.D., n = 3
T4 construct: endogenous in cells; host or cells: MCF-7 human breast cancer cells
T4 sequence (P08842 22-583): T1 sequence (P08842 22-583)

[7] = target: T5, Steroid sulphatase (Rattus norvegicus, UniProt P15589); assay: Steroid sulphatase activity in liver microsome preparations from rats treated subcutaneously; format: in vivo; design: except that the tissue source was rat liver; from tissue; host or cells: liver of female Wistar rats; conditions: 10 mg/kg/day s.c. for 7 days, rat liver microsomes; for Steroid Sulphatase Activity: mean ± 1 S.D., n = 3
T5 sequence (P15589 20-577): T3 sequence (P15589 20-577)

[8] = target: T6, Steroid sulphatase (Homo sapiens, UniProt P08842); assay: biochemical
T6 sequence (P08842 22-583): T1 sequence (P08842 22-583)

[9] = target: T4, Steroid sulphatase (Steryl Sulphatase EC3.1.6.2); assay: Steroid sulphatase activity in intact MCF-7 cells; format: cell-based; conditions: for Steroid Sulphatase Activity: mean ± 1 S.D., n = 3
Method: Steroid sulphatase is defined as: Steryl Sulphatase EC3.1.6.2.
Steroid sulphatase activity was measured in vitro using intact MCF-7 human breast cancer cells. This hormone dependent cell line is widely used to study the control of human breast cancer cell growth. […] Cells were maintained in Minimal Essential Medium (MEM) (Flow Laboratories, Irvine, Scotland) containing 20 mM HEPES, 5% foetal bovine serum, 2 mM glutamine, nonessential amino acids and 0.075% sodium bicarbonate. Up to 30 replicate 25 cm^2 tissue culture flasks were seeded with approximately 1×10^5 cells/flask using the above medium. Cells were grown to 80% confluency and medium was changed every third day.
Each batch of experiments included incubations of microsomes prepared from a sulphatase-positive human placenta (positive control) and flasks without cells (to assess apparent non-enzymatic hydrolysis of the substrate). The number of cell nuclei per flask was determined using a Coulter Counter after treating the cell monolayers with Zaponin. One flask in each batch was used to assess cell membrane status and viability using the Trypan Blue exclusion method (Phillips, H. J. (1973) In: Tissue culture and applications,[eds: Kruse, D. F. & Patterson, M. K.]; pp. 406–408; Academic Press, New York).
Unpaired Student's t-test was used to test the statistical significance of results.
An identical experimental protocol to that described in Example 4 was used to generate results for oestrone-3-N,N-diimethylsulphamate except that incubations contained oestrone-3-N,N-dimethylsulphaiate (5 concentrations: 0; 0.001 μM; 0.01 μM; 0.1 μM; 1 μM) in place of oestrone-3-sulphamate.

[10] = target: T6, Steroid sulphatase; assay: Steroid sulphatase activity in placental microsomes; conditions: for Steroid Sulphatase Activity: mean of 2 estimates
[11] = target: T7, E1-STS (Rattus norvegicus, UniProt P15589); assay: E1-STS activity in uteri of treated ovariectomised rats; format: in vivo; conditions: 1 mg/kg subcutaneously for 5 days, compared with untreated animals
T7 construct: The E1-STS activity in the uteri obtained from these animals; from tissue; host or cells: rat uterus
T7 sequence (P15589 20-577): T3 sequence (P15589 20-577)

[12] = target: T8, sulphatase (Rattus norvegicus, UniProt P15589); assay: Sulphatase activity in white blood cells of rats after oral dosing; format: in vivo; conditions: for % Inhibition MD / % Inhibition SD: white blood cells; for % Inhibition SD: single dose
T8 construct: from tissue; host or cells: rat white blood cells
T8 sequence (P15589 20-577): T3 sequence (P15589 20-577)
Method: Inhibition of sulphatase activity was assessed in white blood cells (wbcs) that were collected after a SD or MD. Sulphatase activity was assayed using labelled oestrone sulphate as the substrate and measuring the release of oestrone.

[13] = tested on: uterine weight; assay: Oestrogenic activity: uterine weight in ovariectomised rats (compound 14); format: in vivo, rat; conditions: 1 mg/kg subcutaneously for 5 days
[14] = target: T9, oestrone sulphatase (E1-STS) (Homo sapiens, UniProt P08842); format: cell-based; conditions: intact MCF-7 cells, 20 h
T9 sequence (P08842 22-583): T1 sequence (P08842 22-583)

substrate for E1-STS (in words) ([2]; 100 μg incubated for 1 hour with placental microsomes): is indeed a substrate for the sulphatase
SMILES: Cc1cc(=O)oc2cc(OS(=O)(=O)[O-])ccc12.[Na+] [Compound 12, 7-(Sulphoxy)4-Methylcoumarin. sodium salt, reference compound]
stability in bases and acidic conditions (in words) [1]: stable in bases such as sodium hydroxide in methanol but not in acidic conditions

% Inhibition (Mean) Placental Microsomes ([3]; concentration tested 0.1 mM (so in the source)): 97.2%
% Inhibition (Mean) Placental Microsomes ([3]; concentration tested 1 mM (so in the source)): 99.5%
% Inhibition (Mean) Placental Microsomes ([3]; concentration tested 10 mM (so in the source)): 99.5%
% Inhibition (Mean) Placental Microsomes ([3]; concentration tested 25 mM (so in the source)): 99.7%
effect on uterine growth (oestrogenicity, in words) [4]: no significant effect on uterine growth
inhibition of oestrone sulphatase activity in vivo [5]: 98%
SMILES: C[C@@]12CCC[C@H]1[C@@H]1CCc3cc(OS(N)(=O)=O)ccc3[C@H]1CC2 [NOMATE, 17-deoxy oestrone-3-O-sulphamate]

inhibition of E1-STS activity in the uteri [11]: 89.4%
% Inhibition MD ([12]; 0.1 mg/kg oral daily for seven days): 65%
% Inhibition SD ([12]; 0.1 mg/kg oral): 72%
% Inhibition MD ([12]; 1.0 mg/kg oral daily for seven days): 85%
% Inhibition SD ([12]; 1.0 mg/kg oral): 85%
% Inhibition MD ([12]; 10.0 mg/kg oral daily for seven days): 89%
% Inhibition SD ([12]; 10.0 mg/kg oral): 96%
oral activity in rats (in words) ([12]; oral, rats): potent oral activity
SMILES: Cc1cc(=O)oc2cc(OS(N)(=O)=O)ccc12 [compound 14]
uterine weight (oestrogenic activity, in words) [13]: did not result in any significant increase in the uterine weight

The next lines start with the compound.

SMILES: C[C@]12CC[C@@H]3c4ccc(OS(N)(=O)=O)cc4CC[C@H]3[C@@H]1CCC2=O [Oestrone-3-sulphamate]
effect on hydrolysis of compound (12) by E1-STS (in words) ([2]; EMATE 10 μM): reduced the hydrolysis of compound (12) by E1-STS
Steroid Sulphatase Activity [6]: 1.7 ± 0.2 fmol/20 hr/10^6 cells
% reduction over control ([7]; assay substrate DHA-S): 94.2%
Steroid Sulphatase Activity ([7]; assay substrate DHA-S): 0.1 ± 0.01 nmol/30 min/200 mg protein
% reduction over control ([7]; assay substrate E1-S): 98.4%
Steroid Sulphatase Activity ([7]; assay substrate E1-S): 0.34 ± 0.1 nmol/30 min/200 mg protein
pIC50 [8]: 7.15
inhibition at 10 pM ([9]; MCF7, inhibitor 0.01 nM, read-out: % reduction over control (% inhibition)): 17.2%
inhibition at 0.0001 µM ([9]; MCF7, inhibitor 0.1 nM, read-out: % reduction over control (% inhibition)): 60.9%
inhibition at 0.001 µM ([9]; MCF7, inhibitor 1 nM, read-out: % reduction over control (% inhibition)): 95%
inhibition at 0.01 µM ([9]; MCF7, inhibitor 0.01 μM, read-out: % reduction over control (% inhibition)): 98.8%
inhibition at 0.1 µM ([9]; MCF7, inhibitor 0.1 μM, read-out: % reduction over control (% inhibition)): 99.2%
inhibition at 1 µM ([9]; MCF7, inhibitor 1 μM, read-out: % reduction over control (% inhibition)): 99.5%
Steroid Sulphatase Activity ([9]; inhibitor 0.01 pM): 362.3 ± 21.2 fmol/20 hr/10^6 cells
Steroid Sulphatase Activity ([9]; inhibitor 0.1 pM): 330.7 ± 17.8 fmol/20 hr/10^6 cells
Steroid Sulphatase Activity ([9]; inhibitor 1 pM): 321.8 ± 6.2 fmol/20 hr/10^6 cells
Steroid Sulphatase Activity ([9]; inhibitor 0.01 nM): 265.1 ± 11.0 fmol/20 hr/10^6 cells
Steroid Sulphatase Activity ([9]; inhibitor 0.1 nM): 124.8 ± 12.4 fmol/20 hr/10^6 cells
Steroid Sulphatase Activity ([9]; inhibitor 1 nM): 16.49 ± 4.7 fmol/20 hr/10^6 cells
Steroid Sulphatase Activity ([9]; inhibitor 0.01 μM): 3.92 ± 0.4 fmol/20 hr/10^6 cells
Steroid Sulphatase Activity ([9]; inhibitor 0.1 μM): 2.53 ± 1.1 fmol/20 hr/10^6 cells
Steroid Sulphatase Activity ([9]; inhibitor 1 μM): 1.68 ± 0.7 fmol/20 hr/10^6 cells
Steroid Sulphatase Activity ([9]; inhibitor 1 fM): 353.3 ± 39.0 fmol/20 hr/10^6 cells
% reduction over control (% inhibition) ([10]; 0.05 µM): 44.0%
% reduction over control (% inhibition) ([10]; 0.1 μM): 60.2%
% reduction over control (% inhibition) ([10]; 0.2 µM): 81.8%
% reduction over control (% inhibition) ([10]; 0.4 µM): 89.2%
% reduction over control (% inhibition) ([10]; 0.6 µM): 92.0%
% reduction over control (% inhibition) ([10]; 0.8 µM): 93.6%
% reduction over control (% inhibition) ([10]; 1 μM): 93.3%
Steroid Sulphatase Activity ([10]; inhibitor 0.05 μM): 430.4 pmol/hr/0.1 mg protein
Steroid Sulphatase Activity ([10]; inhibitor 0.1 μM): 305.9 pmol/hr/0.1 mg protein
Steroid Sulphatase Activity ([10]; inhibitor 0.2 μM): 140.0 pmol/hr/0.1 mg protein
Steroid Sulphatase Activity ([10]; inhibitor 0.4 μM): 83.3 pmol/hr/0.1 mg protein
Steroid Sulphatase Activity ([10]; inhibitor 0.6 μM): 61.8 pmol/hr/0.1 mg protein
Steroid Sulphatase Activity ([10]; inhibitor 0.8 μM): 49.2 pmol/hr/0.1 mg protein
Steroid Sulphatase Activity ([10]; inhibitor 1.0 μM): 51.6 pmol/hr/0.1 mg protein

SMILES: NS(=O)(=O)Oc1ccc2c(C(F)(F)F)cc(=O)oc2c1 [compound 16, 4-(trifluoromethylcoumarin)-7-O-sulphamate]
inhibition of oestrone sulphatase at 10 μM [14]: 71.5%
